Measurements from patent publication US5719291A, “Cyclohexane derivatives” (Hoffmann-La Roche Inc., priority 1991, dated 1998).
In brackets after ≈: the same amount, converted by molar mass. Counter-ions that a name gives are not always drawn. Like-named read-outs stand apart in the source and are kept apart here.

Tests used:
[1] = test system: C. neoformans; assay: In vitro antifungal activity, IC80 (Method B); format: cell-based; conditions: Cryptococcus neoformans
Description: (§1) The in vitro antifungal activities of the representative compounds of the present invention shown in Table 1 and Table 2 were measured by determining the minimal inhibitory concentrations (MIC: Method A) or 80% growth inhibition concentration (IC80 : Method B) respectively. MIC is defined as the concentration of an antifungal at which growth of fungi is not observed and IC80 is the concentration where cell turbidity measured at OD630 is reduced by 80%.
(§2) Antifungal activities were determined by either method A or B (see below) using microtest plates according NCCLS with minor modifications (Galgiani et at., Antimicrob. Agents Chemother. 33, 731 (1989)).
(§3) (Method B) The medium for yeast was buffered to pH 7.0 with 0.25% K2 HPO4 in Yeast Nitrogen Base (Difco Lab.). For the filamentous fungi, 0.2% of low melting point agar was supplemented to the above medium. Inoculum size was 1×10^4 cells/ml, and incubation was carried out for 1-2 days at 27° C. Fluconazole (Pfizer) was used as reference.

[2] = test system: Candida albicans; assay: In vitro antifungal activity, IC80 (Method B); format: cell-based
Description: as §1, §2, §3

[3] = test system: A. fumigatus; assay: In vitro antifungal activity, IC80 (Method B); format: cell-based; conditions: Aspergillus fumigatus, read-out: Antifungal activity IC80
Description: as §1, §2, §3

[4] = Acute toxicity (LD50) by oral administration in mice; format: in vivo; conditions: mouse, in vivo, read-out: LD50
[5] = pH 7, C. neoformans CY1057, 1×10^4 cells/ml, 1-2 days, 27° C., read-out: Antifungal activity IC80
[6] = pH 7, C. neoformans CY1059, 1×10^4 cells/ml, 1-2 days, 27° C., read-out: Antifungal activity IC80
[7] = pH 7, Candida albicans CY1002, 1×10^4 cells/ml, 1-2 days, 27° C., read-out: Antifungal activity IC80
[8] = pH 7, Candida albicans CY1005, 1×10^4 cells/ml, 1-2 days, 27° C., read-out: Antifungal activity IC80
[9] = pH 7, Candida albicans CY3003, 1×10^4 cells/ml, 1-2 days, 27° C., read-out: Antifungal activity IC80
[10] = A. fumigatus CF1003, 1×10^4 cells/ml, 1-2 days, 27° C., 0.2% agar
[11] = A. fumigatus CF1004, 1×10^4 cells/ml, 1-2 days, 27° C., 0.2% agar

Row | Compound | IC80 [1, 5] [µg/mL] | IC80 [1, 6] [µg/mL] | IC80 [2, 7] [µg/mL] | IC80 [2, 8] [µg/mL] | IC80 [2, 9] [µg/mL] | IC80 [3, 10] [µg/mL] | IC80 [3, 11] [µg/mL] | LD50 [4] [mg/kg] | IC80 ([1]; pH 7, read-out: Antifungal activity IC80, C. neoformans CY1057, 1×10^4 cells/ml, 1-2 days, 27° C.) [µg/mL] | IC80 ([1]; pH 7, read-out: Antifungal activity IC80, C. neoformans CY1059, 1×10^4 cells/ml, 1-2 days, 27° C.) [µg/mL] | IC80 ([2]; pH 7, read-out: Antifungal activity IC80, Candida albicans CY1002, 1×10^4 cells/ml, 1-2 days, 27° C.) [µg/mL] | IC80 ([2]; pH 7, read-out: Antifungal activity IC80, Candida albicans CY1005, 1×10^4 cells/ml, 1-2 days, 27° C.) [µg/mL] | IC80 ([2]; pH 7, read-out: Antifungal activity IC80, Candida albicans CY3003, 1×10^4 cells/ml, 1-2 days, 27° C.) [µg/mL] | IC80 [3] [µg/mL]
1 | COc1ccc(CC[C@@H]2CCC(C)(C)[C@H](OC)[C@H]2NC(=O)CN)cc1 [Example 55, (1R,2S,3S)-2-[(aminoacetyl)amino]-4-47dimethyl-3-methoxy-1-[2-(4-methoxyphenyl)ethyl]cyclohexane trifluoroacetic acid salt] | 170 | 150 | 49 | 69 | 50 | > 200 | > 200 | – | – | – | – | – | – | –
2 | CCCCCCC/C=C/[C@@H]1OC[C@H](C)C=C1Cn1ccnc1 [Example 60, 1-[[(2S,5R)-5,6-dihydro-5-methyl-2-[(E)-1-nonenyl]-2H-pyran-3-yl]methyl]-1H-imidazole] | – | – | – | – | – | – | – | > 500 | – | – | – | – | – | –
3 | CCCCCCCCO[C@@H]1CCC(C)(C)[C@H](OC)[C@@H]1Cn1cncn1 [Example 69, 1-[[(1R,2R,6R)-2-methoxy-3,3-dimethyl-6-octyloxycyclohexyl]methyl]-1H-1,2,4-triazole] | – | – | – | – | – | – | – | > 500 | – | – | – | – | – | –
4 | CO[C@@H]1[C@@H](Cn2cncn2)[C@H](CCc2ccc(N(C)C)cc2)CCC1(C)C [Example 71] | 1.2 (≈ 3.24 µM) | 1.9 (≈ 5.13 µM) | 0.03 (≈ 0.081 µM) | 0.094 (≈ 0.254 µM) | 0.036 (≈ 0.0972 µM) | 32 (≈ 86.4 µM) | 37 (≈ 99.9 µM) | – | – | – | – | – | – | –
5 | CO[C@@H]1[C@@H](Cn2cncn2)[C@H](CCc2ccc(Cl)cc2)CCC1(C)C [Example 72, 1-[[(1R,2R,6R)-6-[2-(4-chlorophenyl)ethyl]-2-methoxy-3,3-dimethylcyclohexyl]methyl]-1H-1,2,4-triazole] | 1.3 (≈ 3.59 µM) | 4.8 (≈ 13.3 µM) | 0.095 (≈ 0.262 µM) | 0.094 (≈ 0.26 µM) | 0.06 (≈ 0.166 µM) | 14 (≈ 38.7 µM) | 12 (≈ 33.2 µM) | – | – | – | – | – | – | –
6 | CO[C@@H]1[C@@H](Cn2cncn2)[C@H](CSc2ccc(Cl)cc2)CCC1(C)C [Example 73, 1-[[(1R,2R,6R)-6-[(4-chlorophenylthio)methyl]-2-methoxy-3,3-dimethylcyclohexyl]methyl]-1H-1,2,4-triazole] | 5.8 (≈ 15.3 µM) | 6.1 (≈ 16.1 µM) | 0.008 (≈ 0.0211 µM) | 0.011 (≈ 0.029 µM) | 0.02 (≈ 0.0526 µM) | 23 (≈ 60.5 µM) | 23 (≈ 60.5 µM) | – | – | – | – | – | – | –
7 | CO[C@@H]1[C@@H](Cn2cncn2)[C@H](CCc2ccc(C)cc2)CCC1(C)C [Example 74] | 0.46 (≈ 1.35 µM) | 3.8 (≈ 11.1 µM) | 0.076 (≈ 0.223 µM) | 0.093 (≈ 0.272 µM) | 0.038 (≈ 0.111 µM) | 20 (≈ 58.6 µM) | 24 (≈ 70.3 µM) | – | – | – | – | – | – | –
8 | CO[C@@H]1[C@@H](Cn2cncn2)[C@H](CCc2ccc3ccccc3c2)CCC1(C)C [Example 75, 1-[[(1R,2R,6R)-2-methoxy-3,3-dimethyl-6-(2-b-naphthylethyl)cyclohexyl]methyl]-1H,1,1,4-triazole] | 0.19 (≈ 0.503 µM) | 1.3 (≈ 3.44 µM) | 0.18 (≈ 0.477 µM) | 0.2 (≈ 0.53 µM) | 0.34 (≈ 0.901 µM) | > 200 | > 200 | – | – | – | – | – | – | –
9 | CO[C@@H]1[C@@H](Cn2cncn2)[C@H](CCc2ccc3ccccc3n2)CCC1(C)C [Example 76, 1-[[(1R,2R,6S)-2-methoxy-3,3-dimethyl-6-(2-quinolin-2-ylethyl)cyclohexyl]methyl]-1H,1,2,4-triazole] | 10 (≈ 26.4 µM) | 30 (≈ 79.3 µM) | 0.38 (≈ 1 µM) | 0.77 (≈ 2.03 µM) | 0.36 (≈ 0.951 µM) | 30 (≈ 79.3 µM) | 36 (≈ 95.1 µM) | – | – | – | – | – | – | –
10 | CO[C@@H]1[C@@H](Cn2cncn2)[C@H](CCc2ccc(C(F)(F)F)cc2)CCC1(C)C [Example 77] | 0.39 (≈ 0.986 µM) | 3.2 (≈ 8.09 µM) | 0.16 (≈ 0.405 µM) | 0.18 (≈ 0.455 µM) | 0.093 (≈ 0.235 µM) | > 200 | > 200 | – | – | – | – | – | – | –
11 | CO[C@@H]1[C@@H](Cn2cncn2)[C@H](CCc2ccc(OC(F)(F)F)cc2)CCC1(C)C [Example 78, 1-[[(1R,2R,6R)-6-(p-trifluoromethoxyphenethyl)-2-methoxy-3,3-dimethylcyclohexyl]methyl]-1H-1,2,4-triazole] | 8.4 (≈ 20.4 µM) | 21 (≈ 51 µM) | 0.03 (≈ 0.0729 µM) | 0.093 (≈ 0.226 µM) | 0.071 (≈ 0.173 µM) | > 200 | > 200 | – | – | – | – | – | – | –
12 | COc1ccc(CC[C@@H]2CCC(C)(C)[C@H](OC)[C@H]2Cn2cncn2)cc1 [Example 79, 1-[[(1R,2R,6R)-2-methoxy-6-(p-methoxyphenethyl)-3,3-dimethylcyclohexyl]methyl]-1H,1,2,4-triazole] | 0.86 (≈ 2.41 µM) | 4.7 (≈ 13.1 µM) | 0.023 (≈ 0.0643 µM) | 0.024 (≈ 0.0671 µM) | 0.02 (≈ 0.0559 µM) | > 200 | > 200 | – | – | – | – | – | – | –
13 | CO[C@@H]1[C@@H](Cn2cncn2)[C@H](CCc2ccc(F)cc2F)CCC1(C)C [Example 80, 1-[[(1R,2R,6S)-6-(2,4-difluorophenethyl)-2-methoxy-3,3-dimethylcyclohexyl]methyl]-1H-1,2,4-triazole] | 11 (≈ 30.3 µM) | 12 (≈ 33 µM) | 0.35 (≈ 0.963 µM) | 0.65 (≈ 1.79 µM) | 0.19 (≈ 0.523 µM) | 93 (≈ 256 µM) | 40 (≈ 110 µM) | – | – | – | – | – | – | –
14 | CCc1ccc(CC[C@@H]2CCC(C)(C)[C@H](OC)[C@H]2Cn2cncn2)cc1 [Example 81, 1-[[(1R,2R,6R)-6-(4-ethylphenyl)ethyl-2-methoxy-3,3-dimethyl-cyclohexyl]methyl]-1H-1,2,4-triazole] | 1.5 (≈ 4.22 µM) | 1.5 (≈ 4.22 µM) | 0.0075 (≈ 0.0211 µM) | 0.025 (≈ 0.0703 µM) | 0.0042 (≈ 0.0118 µM) | > 200 | > 200 | – | – | – | – | – | – | –
15 | CO[C@@H]1[C@@H](Cn2cncn2)[C@H](CCc2ccc(N3CCCC3)cc2)CCC1(C)C [Example 82, 1-[[(1R,2R,6R)-2-methoxy-3,3-dimethyl-6-[2-(p-pyrrolidinophenyl)ethyl]cyclohexyl]methyl]-1H,1,2,4-triazole] | > 200 | > 200 | 0.15 (≈ 0.378 µM) | 0.35 (≈ 0.883 µM) | 0.17 (≈ 0.429 µM) | > 200 | > 200 | – | – | – | – | – | – | –
16 | CCc1ccc(OC[C@@H]2CCC(C)(C)[C@H](OC)[C@H]2Cn2cncn2)cc1 [Example 83, 1-[[(1R,2R,6R)-2-methoxy-3,3-dimethyl-6-(4-ethylphenoxy)methyl]methyl]-1H,1,2,4-triazole] | 0.21 (≈ 0.587 µM) | 0.19 (≈ 0.531 µM) | 0.31 (≈ 0.867 µM) | 0.24 (≈ 0.671 µM) | 0.59 (≈ 1.65 µM) | > 200 | > 200 | – | – | – | – | – | – | –
17 | OC(Cn1cncn1)(Cn1cncn1)c1ccc(F)cc1F [FCZ, Fluconazole, reference compound] | – | – | – | – | – | – | – | – | 5.2 (≈ 17 µM) | 8.6 (≈ 28.1 µM) | 1.1 (≈ 3.59 µM) | 1.2 (≈ 3.92 µM) | 1 (≈ 3.27 µM) | 150 (≈ 490 µM)
